Measurements published in patent US10987319B2, “TFEB activator C1 ameliorates app and tau pathology and rescues cognitive deficits in neurodegenerative diseases” (Hong Kong Baptist University, priority 2018, dated 2021).

Tests used:
Type in all cases: in vivo
3×Tg mice [1] = experiment: Open-field test; conditions: 3×Tg mice, 50 mg/kg oral 7 months
Experimental: Homozygous 3×Tg mice (APP KM670/671NL (Swedish), MAPT P301L, PSEN1 M146V) were produced in Hong Kong Baptist University animal house and maintained at 23±2° C. temperature, 60±15% relative humidity with free access to food and water ad libitum. Seven months old WT (129/SvJ, n=6 for male mice; n=10 for female mice) and 3×Tg mice (n=6 for male mice; n=10 for female mice) were treated daily with vehicle (1% CMC-Na; Sigma-Aldrich, C5678]), curcumin analogue C1 (2.5 mg/kg, 5 mg/kg, 10 mg/kg) or curcumin (50 mg/kg; Sigma-Aldrich, 08511) suspended in 1% CMC-Na by oral gavage for 7 months. 3×Tg mice were treated with the indicated compounds for 7 months and then the open-field test was performed to evaluate the exploratory behavior in novel environment. The experiment was conducted 30 min after last dosing time. Mice placed in the center of an empty open field (25 cm×25 cm) were allowed to explore the environment for 5 min without any external disturbance. Ethnovision XT software was used to measure the patterns of movement, time spent in the center and margin, velocity, distance traveled as indicators of agility and exploration.

[2] = Pharmacokinetic study in mice, oral (brain and blood levels by LC/MS/MS); conditions: male, mouse, C57BL/6 mice, oral 10 mg/kg, brain
3×Tg mice [3] = experiment: Morris-water maze; conditions: 50 mg/kg oral 7 months
Experimental: Homozygous 3×Tg mice (APP KM670/671NL (Swedish), MAPT P301L, PSEN1 M146V) were produced in Hong Kong Baptist University animal house and maintained at 23±2° C. temperature, 60±15% relative humidity with free access to food and water ad libitum. Seven months old WT (129/SvJ, n=6 for male mice; n=10 for female mice) and 3×Tg mice (n=6 for male mice; n=10 for female mice) were treated daily with vehicle (1% CMC-Na; Sigma-Aldrich, C5678]), curcumin analogue C1 (2.5 mg/kg, 5 mg/kg, 10 mg/kg) or curcumin (50 mg/kg; Sigma-Aldrich, 08511) suspended in 1% CMC-Na by oral gavage for 7 months. 3×Tg mice were treated with the indicated compounds for 7 months and Morris-water maze (MWM) was used to evaluate the spatial learning memory. MWM is a circular water (21±1° C.) container with 1 meter diameter. Animals were pre-quarantined and acclimatized to the experimenting room at least 1 week before the start of the experiment. The experiment was started with one day visual platform trial. Each mouse underwent 4 visible platform trails (each trial 60 seconds) with different platform placement, positioned above the water level. Hidden platform training was conducted after mixing a non-toxic paint in the water. Mice were trained for 6 continuous days, each day composed of different session with 4 hidden platform trials (each trial 60 seconds). Each session was designed with randomized animal introduction pattern into the water maze with unchanged platform position. Each trial was conducted with 30 min inter-trial interval and provided with external cues. To assess the long term spatial memory retrieval a probe trial (60 seconds) was conducted 24 h after the last training session. During probe trial water maze was divided into 4 quadrants. The hidden platform in the target quadrant was removed after determining its location. Ethnovision XT software was used to observe and record the swimming pattern. During hidden platform training sessions, time spent to find the platform was taken as a parameter to evaluate memory acquisition. In probe trial percentage of time spent in the target quadrant compared to the other 3 quadrants was calculated.

[4] = system: APP, APP CTFs, Aβ, LC3-II; experiment: Western blotting of brain tissue, 5×FAD mice
Experimental: 5×FAD male mice were inbred with wild-type (WT, C57/BL6) female mice to produce heterozygous offspring. Offspring were genotyped to select 5×FAD (APP KM670/671NL (Swedish), APP I716V (Florida), APP V717I (London), PSEN1 M146L (A>C), PSEN1 L286V) gene mutations mice.
(§1) Brain tissues were lysed with RIPA buffer (TBS with 1% NP-40, 1% sodium deoxycholic acid, 0.1% SDS, and protease phosphatase inhibitor cocktails) and centrifuged at 15,000 RPM for 30 min. Supernatant is collected and the pellets were further lysed with 2% SDS in RIPA buffer. Protein concentration was estimated by BCA assay. […] Protein chemiluminescence signal was detected by using ECL kit and quantified using ImageJ software.

5×FAD mice = experiment: Contextual fear conditioning; conditions: 50 mg/kg oral daily 4 months, P<0.05
Experimental: Male 5×FAD mice were purchased from Jackson laboratories (Stock number 006554) and maintained at 23±2° C. temperature, 60±15% relative humidity with free access to food and water ad libitum. 5×FAD male mice were inbred with wild-type (WT, C57/BL6) female mice to produce heterozygous offspring. Offspring were genotyped to select 5×FAD (APP KM670/671NL (Swedish), APP I716V (Florida), APP V717I (London), PSEN1 M146L (A>C), PSEN1 L286V) gene mutations mice. Two months old WT and 5×FAD mice (male and female, n=10-14 per group) were treated daily with vehicle (1% sodium carbonyl methylcellulose [CMC-Na; Sigma-Aldrich, C5678]), curcumin analogue C1 (5 mg/kg, 10 mg/kg) or curcumin (50 mg/kg; Sigma-Aldrich, 08511) suspended in 1% CMC-Na by oral gavage for 4 months.
Contextual fear conditioning (CFC) was used to evaluate the fear memory reconsolidation of 5×FAD mice after treatment. The experiment was conducted 30 min after the drug treatment in ANY maze fear conditioning system under licensed ANY maze tracking system connected to a Windows XP computer. A digital camera was installed on each chamber and signals were sent to the computer for analysis. The experiments were conducted in two sound proof chambers. All the experiments were conducted with continuous 40 units of white noise and 40 lux white light. During training, mice were allowed to explore the platform for 2.5 min and then received 3 repeated footshock cycles (30 s) at 30 s intervals, each started with a cue tone (28 s, 1500 Hz) and ended by a footshock ([…], 2 s). On the second day the mice were allowed to explore the platform for 3 min followed by a cue tone (30 s, 1500 Hz) without footshock, and the freezing time was recorded. Contextual fear memory formation and the subsequent remote memory stabilization were evaluated by scoring freezing index (the absence of all but respiratory movement).

[5] = system: APP, CTFs, phosphorylated Tau, total Tau, TFEB, LC3-II; experiment: Western blotting of hippocampus, female 3×Tg mice; conditions: 50 mg/kg oral 7 months
Experimental: (§2) Homozygous 3×Tg mice (APP KM670/671NL (Swedish), MAPT P301L, PSEN1 M146V) were produced in Hong Kong Baptist University animal house and maintained at 23±2° C. temperature, 60±15% relative humidity with free access to food and water ad libitum.
as §1

Aβ plaques = experiment: Immunohistochemistry of Aβ plaques (4G8 antibody), 3×Tg mice; conditions: 50 mg/kg oral 7 months
Experimental: as §2
Brain sections (30 μm) were cut on a microtome and stored at 4° C. in PBS+0.1% sodium azide. Sections were permeabilized for 10 min with cold PBS containing 0.5% Triton X-100 and blocked with 3% bovine serum albumin for 1 h at room temperature.

[6] = 5×FAD mice, male and female, 50 mg/kg oral 4 months

For `COc1cc(/C=C/C(=O)CC(=O)/C=C/c2ccc(O)c(OC)c2)ccc1O` [curcumin, Curcumin, reference compound], the “improvement in the open field test” value (3×Tg mice [1]) was “no significant improvement”, the Tmax [2] was 1 h and the Cmax ([2]; read-out: maximum concentration (Cmax) in the brain) was 73.77 ± 0.24 ng/g. The “percentage of time spent in the target quadrant, probe trial, vs vehicle” value (3×Tg mice [3]) was “significantly increased”, the “LC3-II levels in brain (autophagy enhancement)” value [4, 6] was “increase in LC3-II levels” and the “levels of A3 in brain” value [4, 6] was “significantly reduced”. The “levels of APP CTFs in brain” value [4, 6] was “significantly reduced”, the “Fl-APP levels in brain” value ([4]; female 5×FAD mice, oral 4 months) was “reduced Fl-APP levels” and the “freezing index (memory reconsolidation) vs vehicle” value (5×FAD mice) was “significant memory reconsolidation”. For the same molecule, the CTFs [5] was “no significant reduction”, the “levels of phosphorylated Tau (PHF1, AT8)” value ([5]; hippocampus) was “significantly decreased” and the Aβ load (Aβ plaques) was “no significant reduction”.
